For one assay, the system named is Panc-2H4 cells. The assay can be described thus: Human Panc-2H4 insulin suppression assay. Type of assay: cell-based. The source says:
Two different assays for “classical” sstr2 functions were adopted: (1) cultured foetal rat pituitary cells secreted growth hormone which is inhibited by sstr2 agonists in a dose-dependent fashion and (2) selected glucose-sensitive sub-clones of the human Panc-1 cell line secrete insulin which is inhibited by sstr2 agonists in a dose-dependent fashion.
Glucose-sensitive sub-clones of the human Panc-1, a cell line derived from a pleiomorphic epithelioid carcinoma of the exocrine pancreas, were obtained essentially as described by Hamil et al. (2008) Biomed. Sci. Instrum. 44:441-6. Briefly, Panc-1 cells were subcultured in 24 well plates, and the medium was supplemented with an additional 5% glucose. […] The resulting sub-lines were then tested for glucose sensitivity by preparing wells of a 96-well plate (5×10^4 cells per well) which were then exposed to cultured medium containing a range of glucose concentrations (low glucose DMEM, DMEM, DMEM+1% glucose, DMEM+2.5% glucose and DMEM+5% glucose). After 24 hrs incubation, the conditioned medium was collected and assayed for insulin secretion by ELISA (Linco; cat# EZHI-14K) in accordance with the manufacturer's instructions.
Further 96 well plates were prepared using Panc-2H4 (5×10^4 cells per well) in DMEM. After 24 hrs, the medium was switched to DMEM+5% glucose containing various test agents at various concentrations (triplicate wells per condition). After a further 24 hrs, the conditioned medium was harvested and the concentration of insulin was determined by ELISA as described above.
Results were reported as the mean±SD, expressed as the fold change from cells in the presence of vehicle only.

In assay [1] the test system is TNF-alpha production in response to bacterial endotoxin. The assay can be described thus: Sub-lethal endotoxemia model, serum TNF-alpha after LPS. It is filed as in vivo. As to conditions: mouse, serum 2 hours after LPS. How it is done:
We selected the sub-lethal endotoxemia model in mouse, because this has been well characterised in our laboratory (see for example Fox et al. (2002) J. Med. Chem. 45:360-70; Fox et al. (2005) J. Med. Chem. 48:867-74). The extent of systemic inflammation in response to a single intraperitoneal injection of bacterial lipopolysaccharide (LPS) can be estimated by measuring serum TNF-alpha 2 hours post challenge.
Methods: Mice (CD1 strain; adult males; 6 per group) were treated with BSCI (in an appropriate vehicle) or with vehicle alone by an appropriate route. […] Simultaneously, one set of mice at each BSCI concentration received BIM 23627 at […] by sub-cutaneous injection (a treatment condition known to suppress classical sstr2-mediated signalling, such as GH release, in rats; Tulipano et al. (2002) 143:1218-24). […]
After, a further 2 hours, the animals were sacrificed by CO2 asphyxiation, and blood was drawn by cardiac puncture. Serum was prepared by conventional methods, and the level of TNF-alpha in serum was measured using an ELISA (R&D Systems; Murine Quantikine code# MTA00) performed in accordance with the manufacturer's instructions. […]

Assay [2] deals with rat peripheral blood leukocytes. The assay can be described thus: Rat chemokine-induced PBMC migration assay. As to conditions: Table 3. It is filed as cell-based.

Here are results for two compounds from US20120053076A1, “METHODS FOR IDENTIFICATION” (Cambridge Enterprise Limited, priority 2009, published 2012).

Where two headings read alike, the source gives them in different places.

In the case of “(S)-3-(2′,2′-dimethyldodecanoyl)amino-caprolactam [BN83250]”, the EC50 came out at 1000 nM with Panc-2H4 cells (Table 3, read-out: Human Panc-2H4 insulin suppression assay ED50) and 1000 nM in the assay with Panc-2H4 cells (Table 5, read-out: Panc-2H4 insulin suppression assay (“classical” target) ED50). Besides, the “Human Panc-2H4 insulin suppression assay Max effect” value in the assay with Panc-2H4 cells (Table 3, suppression compared to vehicle) came to 28%. Also, in the assay on Panc-2H4 cells (Table 5), the “Panc-2H4 insulin suppression assay (“classical” target) Max Effect” value came out at 28%. Further, the “Inhibition of TNF-alpha production in response to endotoxin, in words” value in assay [1] is recorded as “dramatically inhibited”. Besides, the “Rat chemokine-induced PBMC migration assay Max effect” value in assay [2] worked out at 100%.
Take `CC(C)(C)C(=O)N[C@H]1CCCNC1=O` [Valerolactam, (S)-3-(2′,2′-dimethylpropionoylamino)-tetrahydropyridin-2-one]: the EC50 in the assay with Panc-2H4 cells (Homo sapiens, Table 3, read-out: Human Panc-2H4 insulin suppression assay ED50) was over 1000 nM. For the same compound, in assay [1], the “Inhibition of TNF-alpha production in response to endotoxin, in words” value is given as “dramatically inhibited”. For the same compound, in assay [2] (Rattus norvegicus, Leukocyte, read-out: Rat chemokine-induced PBMC migration assay Max effect), the Emax was 100%.
